In test [1] the test system is STHdh^Q109 cells. Description: Cellular ROS production (H2DCFDA fluorescence). The class given is cell-based, mouse. As to conditions: 1 h, FIG. 2. The method, then:
Oxidative stress is one of the important events triggers cell death in STHdh^Q109 cells. To investigate whether ginsenoside M1 inhibited cell death of STHdh^Q109 cells by reducing oxidative stress, STHdh^Q109 cells were treated with 1, 10 and 30 μM ginsenoside M1 or vehicle (DMSO) in the presence of 10 μM intracellular ROS indicator fluorescent probe 2,7-dichlorodihydrofluorescein diacetate (H2DCFDA; Molecular Probes, Inc., Eugene, Oregon, USA) for 1 h. Cellular ROS contents were measured by detecting the fluorescence intensity (Excitation/Emission: 488 nm/510 nm) using a fluorescence plate reader (Fluoroskan Ascent; Thermo Electron Corporation, Woburn, MA, USA). […] The results are express as the means±SEM of triplicate samples. Multiple groups will analyze with one-way analysis of variance (ANOVA), follow by a post-hoc Student-Newman-Keuls test. p value of <0.05 will considered significant. ^ap<0.05: compared to untreated (vehicle-treated) STHdh^Q109 cells.

The test system of test [2] is R6/2 mice. Description: Motor coordination, rotarod apparatus assay in HD disease mice. Type of test: in vivo, mouse. As to conditions: 30 mg/kg oral daily for 4 weeks from age of 7 weeks, rotarod 12 rpm, 2 min, FIG. 7. The method, then:
Mice were treated daily with ginsenoside M1 (30 mg/kg of body weight, oral administration) or vehicle for 4 weeks from the age of 7 weeks. Motor coordination was assessed using a rotarod apparatus assay (UGO BASILE, Comerio, Italy) at a constant speed (12 rpm) over a period of 2 min. […] Results were expressed as means±SEM. Multiple groups were analyzed by one-way analysis of variance (ANOVA) followed by a post hoc Student-Newman-Keuls test. ^ap<0.05: between WT and R6/2-vehicle mice. ^bp<0.05: compared to R6/2-vehicle mice.

In test [3] the test system is R6/2 mice. Description: Lifespan of HD disease mice. Type of test: in vivo, mouse. As to conditions: 30 mg/kg oral daily for 4 weeks from age of 7 weeks, FIG. 8. The procedure: Mice were treated daily with ginsenoside M1 (30 mg/kg of body weight, oral administration) or vehicle for 4 weeks from the age of 7 weeks, and the lifespan of mice was determined. […] Results were expressed as means±SEM. Multiple groups were analyzed by one-way analysis of variance (ANOVA) followed by a post hoc Student-Newman-Keuls test. ^ap<0.05: between WT and R6/2-vehicle mice. ^bp<0.05: compared to R6/2-vehicle mice.

For the next test, the system named is γH2AX. As to the kind of experiment: Expression level of γH2AX by Western blot. The settings on record: STHdh^Q109 cells, 24 h, vs vehicle-treated STHdh^Q109 cells, FIG. 5. Type of test: cell-based, mouse. The procedure: ATM is now known to regulate DNA repair through the activation of γH2AX. To investigate whether ginsenoside M1 inhibited the expression level of γH2AX, […]7 and […] cells were treated with 10 and 30 μM ginsenoside M1 or vehicle (DMSO) for 24 h. The expression level of γH2AX was measured by Western blot.

The subject of another test is AMPK. Description: Phosphorylation level of AMPK by Western blotting. The class given is cell-based, mouse. The settings on record: STHdh^Q109 cells, 24 h, vs vehicle-treated STHdh^Q109 cells, FIG. 3. The method, then: Activation of AMPK promotes the pathogenesis of HD [37]. To investigate whether ginsenoside M1 inhibited AMPK activation, […]7 and […] cells were treated with 10 and 30 μM ginsenoside M1 or vehicle (DMSO) for 24 h. The phosphorylation level of AMPK was measured by Western blotting.

The next test deals with ATM. As to the kind of experiment: Phosphorylation level of ATM by Western blot. As to conditions: STHdh^Q109 cells, 24 h, vs vehicle-treated STHdh^Q109 cells, FIG. 4. The class given is cell-based, mouse. The procedure:
ATM is activated by DNA damage and plays important role in the phosphorylation of AMPK. To investigate whether ginsenoside M1 inhibited ATM activation, […]7 and […] cells were treated with 10 and 30 μM ginsenoside M1 or vehicle (DMSO) for 24 h. The phosphorylation level of ATM was measured by Western blot.

The test system of another test is p53. Description: Phosphorylation level of p53 by Western blot. The class given is cell-based, mouse. As to conditions: STHdh^Q109 cells, 24 h, vs vehicle-treated STHdh^Q109 cells, FIG. 6. The procedure:
p53 plays a role in the regulation of the cell cycle and apoptosis. p53 becomes activated in response to DNA damage and oxidative stress. To investigate whether ginsenoside M1 inhibited the phosphorylation level of […]7 and […] cells were treated with 10 and 30 μM ginsenoside M1 or vehicle (DMSO) for 24 h. The phosphorylation level of p53 was measured by Western blot.

The test system of test [4] is STHdh^Q109 cells. As to the kind of experiment: MTT reduction assay, survival rate of mHtt expression cells. Type of test: cell-based, mouse. The settings on record: 24 h. From the text:
Conditionally immortalized wild-type […]7 striatal neuronal progenitor cells expressing endogenous normal htt (referred to as wild-type striatal cells), and homozygous mutant […] striatal neuronal progenitor cells from homozygous […] knock-in mice expressing mutant htt with 109 glutamines (referred to as mutant striatal […] and […] cells were generous gifts from Dr. Elena Cattaneo and […] (Department of pharmacological sciences and centre for stem cell research, University of Milano, Italy). These cells were maintained in an incubation chamber at 33° C. in Dulbecco's modified Eagle's medium (DMEM) supplemented with 10% fetal bovine serum (FBS). […]7 and […] cells were treated with 30 μM ginsenoside M1 or vehicle (DMSO) for 24 h. […]7 and […] cells death was quantified by the MTT reduction assay. […] At the end of experiments, cells were incubated in culture medium with 0.5 mg/ml MTT at 37° C. for 2 h. The culture medium was then replaced with DMSO to dissolve the MTT formazan precipitates, which was followed by the measurement of the absorbance at 570 nm using a microplate reader (OPTImax tunable plate reader, Molecular Device, Sunnyvale, CA, USA). The survival rate of the indicated cells was normalized to those survival rate of untreated (vehicle-treated) […]7 cells. As shown in the FIG. 1A, the survival rate of untreated (vehicle-treated) […] cells was lower than that of untreated (vehicle-treated) […]7 cells. […] To confirm the cyto-protective effect of ginsenoside […] cells were treated with 1, 10 and 30 μM ginsenoside M1 or vehicle (DMSO) for 24 h. […] The results are express as the means±SEM of triplicate samples.

A further test deals with mHtt aggregate. Description: mHtt aggregates in striatal lysates, filter retardation assay. Type of test: in vivo, mouse. The settings on record: R6/2 mice, 30 mg/kg oral daily for 4 weeks from age of 7 weeks, FIG. 9. The procedure:
Mice were treated daily with ginsenoside M1 (30 mg/kg of body weight, oral administration) or vehicle for 4 weeks from the age of 7 weeks. The amount of mHtt aggregates in striatal lysates was analyzed by a filter retardation assay. Brain tissues were suspended and homogenized in ice-cold THE buffer, mixed with 2% SDS. Samples were first passed through OE66 membrane filters ([…] pore size; Whatman Schleicher and Schuell, Middlesex, UK) in a slot-blot manifold (Bio-Rad, Irvine, CA, USA). Insoluble aggregates retained on the filters were detected using an anti-Htt antibody.

As to `CC(C)=CCC[C@](C)(O[C@@H]1O[C@H](CO)[C@@H](O)[C@H](O)[C@H]1O)[C@H]1CC[C@]2(C)[C@@H]1[C@H](O)C[C@@H]1[C@@]3(C)CC[C@H](O)C(C)(C)[C@@H]3CC[C@]12C` [ginsenoside M1, 20-O-β-D-glucopyranosyl-20(S)-protopanaxadiol], the ROS production entry in the test on STHdh^Q109 cells [1] (10 μM) and in the test with STHdh^Q109 cells [1] (30 μM) was “significantly reduced” each time. Further, in the test with R6/2 mice [2], the motor coordination result is recorded as “increased significantly”. For the same compound, the lifespan entry with R6/2 mice [3] was “significantly prolonged”. For the same compound, the “expression level of γH2AX” value in the test on γH2AX (10 μM) and in the test on γH2AX (30 μM) was “significantly reduced” each time. The “phosphorylation level of AMPK” value with AMPK (10 μM) and with AMPK (30 μM) was “significantly reduced” throughout. In addition, the “phosphorylation level of ATM” value with ATM (10 μM) and in the test on ATM (30 μM) was “significantly reduced” each time. Also, the “phosphorylation level of p53” value with p53 (10 μM) and in the test on p53 (30 μM) was “significantly reduced” each time. Further, the survival rate entry with STHdh^Q109 cells [4] (10 μM, FIG. 1B) is reported as “significantly increased”; with STHdh^Q109 cells [4] (30 μM, FIG. 1A), “significantly increased”; with STHdh^Q109 cells [4] (30 μM, FIG. 1B), “significantly increased”. The “mHtt aggregate formation in the striatum” value in the test with mHtt aggregate is recorded as “reduced”.
